Values quoted from earlier work in patent publication US12465571B2, “Solid dosage form” (University of Lancashire, priority 2016, dated 2025).

Settings: high solubility and high permeability

Cn1c(=O)c2[nH]cnc2n(C)c1=O [theophylline, Theophylline]
Biopharmaceutical Classification System class: class I
